Values after ≈ are worked out from the molar mass of the structure shown. Like-named read-outs stand apart in the source and are kept apart here.
Columns and labels:
Experiment in all cases: In-vitro antimicrobial activity primary screen (agar dilution MIC)
Type in all cases: cell-based
[1] = system: Streptococcus agalactiae CMX 508; details: CMX508, BHI agar, 20-24 h, read-out: MIC
In short: (§1)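 Each strain was applied with a Steers replicator block to agar plates containing graded test compound, using 1:100 inocula, or 1:10 where growth was slow, as with Streptococcus. Plates were incubated for 20-24 hours at 35-37° C. A reference antibiotic of the same class was run alongside.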

[2] = system: Staphylococcus aureus NCTC 10649; details: NCTC10649, BHI agar, 20-24 h, read-out: MIC
In short: as §1

[3] = system: Streptococcus pyrogenes EES61; details: BHI agar, 20-24 h, read-out: MIC
In short: as §1

[4] = system: Pseudomonas aeruginosa K799/WT
In short: as §1

[5] = system: Staphylococcus aureus A5177; details: Staphylococcus aureus, A5177, 24 h
In short: as §1

[6] = system: Providencia stuartii CMX 640
In short: as §1

Acinetobacter SP CMX 669 = details: Acinetobacter, SPCMX669, 24 h
In short: as §1

Pseudomonas cepacia 2961 = details: BHI agar, 20-24 h
In short: as §1

[7] = system: Staphylococcus aureus 45 RAR2; details: Staphylococcus aureus, 45RAR2, 24 h, BHI agar, 20-24 h
In short: as §1

Escherichia coli DC-2 = details: DC2; Escherichia coli DC-2; BHI agar, 20-24 h; read-out: MIC
In short: as §1

[8] = system: Staphylococcus aureus 642A; details: BHI agar, 20-24 h, read-out: MIC
In short: as §1

[9] = system: Pseudomonas aeruginosa BMH10; details: Pseudomonas aeruginosa, BMH10, 24 h, BHI agar, 20-24 h
In short: as §1

[10] = system: Pseudomonas aeruginosa K799/61; details: Pseudomonas aeruginosa K799/61; BHI agar, 20-24 h; read-out: MIC
In short: as §1

[11] = system: Staphylococcus epidermidis 3519; details: BHI agar, 20-24 h, read-out: MIC
In short: as §1

Staphylococcus aureus 45 = details: BHI agar, 20-24 h, read-out: MIC
In short: as §1

[12] = system: Pseudomonas aeruginosa A5007
In short: as §1

Escherichia coli JUHL = details: Escherichia coli JUHL; BHI agar, 20-24 h; read-out: MIC
In short: as §1

[13] = system: Staphylococcus aureus ATCC 6538P; details: ATCC6538P, BHI agar, 20-24 h
In short: as §1

Escherichia coli SS = details: BHI agar, 20-24 h
In short: as §1

[14] = system: Streptococcus bovis A5169; details: Streptococcus equinus, BHI agar, 20-24 h
In short: as §1

[15] = system: Micrococcus luteus ATCC 9341; details: Micrococcus luteus, ATCC9341, 24 h, BHI agar, 20-24 h
In short: as §1

[16] = system: Enterobacter aerogenes ATCC 13048; details: Klebsiella aerogenes, Enterobacter aerogenes ATCC 13048, BHI agar, 20-24 h
In short: as §1

Escherichia coli H560 = details: Escherichia coli H560, BHI agar, 20-24 h
In short: as §1

[17] = system: Streptococcus pyrogenes 2548 INDUC; details: BHI agar, 20-24 h, read-out: MIC
In short: as §1

[18] = system: Enterococcus faecium ATCC 8043; details: ATCC8043; Enterococcus faecium ATCC 8043; BHI agar, 20-24 h; read-out: MIC
In short: as §1

[19] = system: Klebsiella pneumoniae ATCC 8045
In short: as §1

[20] = system: Micrococcus luteus ATCC 4698; details: ATCC4698, BHI agar, 20-24 h, read-out: MIC
In short: as §1

[21] = system: Staphylococcus aureus CMX 553; details: Staphylococcus aureus, CMX553, 24 h, BHI agar, 20-24 h, read-out: MIC
In short: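 Agar dilution in Brain Heart Infusion agar with twelve successive compound dilutions; plates inoculated with 1:100 diluted cultures by replicator and incubated 20-24 h at 35-37 °C. MIC is the lowest concentration giving no growth, slight haze or sparse isolated colonies versus compound-free control; erythromycin A plate run as reference.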

Compound | MIC [1] | MIC [2] | MIC [3] | MIC [7] | MIC (Escherichia coli DC-2) | MIC [8] | MIC [9] | MIC [10] | MIC [11] | MIC (Staphylococcus aureus 45) | MIC (Escherichia coli JUHL) | MIC [15] | MIC [17] | MIC [18] | MIC [20] | MIC [21] | also measured
CC[C@H]1OC(=O)[C@H](C)[C@@H](O[C@H]2C[C@@](C)(OC)[C@H](O)[C@H](C)O2)[C@H](C)[C@@H](O[C@@H]2O[C@H](C)C[C@H](N(C)C)[C@H]2O)[C@](C)(O)C[C@@H](C)[C@@H]2O[C@@]1(C)C(=O)[C@H]2C [Example 21, (4"R,9S)-9-Deoxo-11,12-dideoxy-9,12-epoxy-11-oxoerythromycin A] | 0.01 µg/mL (≈ 0.014 µM) | 0.2 µg/mL (≈ 0.279 µM) | 0.01 µg/mL (≈ 0.014 µM) | 0.2 µg/mL (≈ 0.279 µM) | 3.1 µg/mL (≈ 4.33 µM) | 0.2 µg/mL (≈ 0.279 µM) | 12.5 µg/mL (≈ 17.5 µM) | 0.39 µg/mL (≈ 0.545 µM) | 0.2 µg/mL (≈ 0.279 µM) | 0.1 µg/mL (≈ 0.14 µM) | 1.56 µg/mL (≈ 2.18 µM) | ≤ 0.005 µg/mL | 1.56 µg/mL (≈ 2.18 µM) | 0.05 µg/mL (≈ 0.0698 µM) | 0.05 µg/mL (≈ 0.0698 µM) | 0.2 µg/mL (≈ 0.279 µM) | MIC ([4]; Pseudomonas aeruginosa, K799/WT, 24 h): 100 µg/mL (≈ 140 µM); MIC ([5]; Staphylococcus aureus A5177, BHI agar, 20-24 h): 1.56 µg/mL (≈ 2.18 µM); MIC ([6]; Providencia stuartii, CMX640, 24 h): > 100 µg/mL; MIC (Acinetobacter SP CMX 669): 0.39 µg/mL (≈ 0.545 µM); MIC (Pseudomonas cepacia 2961; Burkholderia cepacia, 2961, 24 h): > 100 µg/mL; MIC ([12]; Pseudomonas aeruginosa, A5007, 24 h): > 100 µg/mL; MIC ([13]; Staphylococcus aureus, 24 h): 0.2 µg/mL (≈ 0.279 µM); MIC (Escherichia coli SS; read-out: MIC): 0.1 µg/mL (≈ 0.14 µM); MIC ([14]; read-out: MIC): 0.01 µg/mL (≈ 0.014 µM); MIC ([16]; ATCC13048, 24 h): 6.2 µg/mL (≈ 8.66 µM); MIC (Escherichia coli H560; read-out: MIC): 0.78 µg/mL (≈ 1.09 µM); MIC ([19]; Klebsiella pneumoniae, ATCC8045, 24 h): 1.56 µg/mL (≈ 2.18 µM)
CC[C@H]1OC(=O)[C@H](C)[C@@H](O[C@H]2C[C@@](C)(OC)[C@@H](OC(N)=O)[C@H](C)O2)[C@H](C)[C@@H](O[C@@H]2O[C@H](C)C[C@H](N(C)C)[C@H]2O)[C@](C)(O)C[C@@H](C)[C@@H]2O[C@@]1(C)C(=O)[C@H]2C [Example 31, (9S)-4"-O-Aminocarbonyl-9-deoxo-11,12-dideoxy-9,12-epoxy-11-oxoerythromycinA] | 0.02 µg/mL (≈ 0.0264 µM) | 0.05 µg/mL (≈ 0.0659 µM) | 0.02 µg/mL (≈ 0.0264 µM) | 0.05 µg/mL (≈ 0.0659 µM) | 100 µg/mL (≈ 132 µM) | 0.05 µg/mL (≈ 0.0659 µM) | 50 µg/mL (≈ 65.9 µM) | 1.56 µg/mL (≈ 2.06 µM) | 0.05 µg/mL (≈ 0.0659 µM) | 0.05 µg/mL (≈ 0.0659 µM) | 100 µg/mL (≈ 132 µM) | 0.02 µg/mL (≈ 0.0264 µM) | 0.78 µg/mL (≈ 1.03 µM) | 0.05 µg/mL (≈ 0.0659 µM) | 0.05 µg/mL (≈ 0.0659 µM) | 0.05 µg/mL (≈ 0.0659 µM) | MIC ([4]; Pseudomonas aeruginosa K799/WT, BHI agar, 20-24 h, read-out: MIC): 100 µg/mL (≈ 132 µM); MIC [5]: 50 µg/mL (≈ 65.9 µM); MIC ([6]; CMX640, Providencia stuartii CMX 640, BHI agar, 20-24 h, read-out: MIC): > 100 µg/mL; MIC (Pseudomonas cepacia 2961; Burkholderia cepacia, read-out: MIC): > 100 µg/mL; MIC ([12]; Pseudomonas aeruginosa A5007, BHI agar, 20-24 h, read-out: MIC): > 100 µg/mL; MIC ([13]; read-out: MIC): 0.05 µg/mL (≈ 0.0659 µM); MIC (Escherichia coli SS; Escherichia coli, 24 h): 0.2 µg/mL (≈ 0.264 µM); MIC ([14]; A5169, 24 h): 0.05 µg/mL (≈ 0.0659 µM); MIC ([16]; ATCC13048, read-out: MIC): 100 µg/mL (≈ 132 µM); MIC (Escherichia coli H560; Escherichia coli, H560, 24 h): 50 µg/mL (≈ 65.9 µM); MIC ([19]; ATCC8045, Klebsiella pneumoniae ATCC 8045, BHI agar, 20-24 h, read-out: MIC): 100 µg/mL (≈ 132 µM)

Reference: US5288709A, “Erythromycin derivatives” (priority 1991, dated 1994)
